# Columns and labels:
# CDK9 = target: T1, CDK9 (Homo sapiens, UniProt P50750); experiment: CDK protein degradation activity (Western blotting), CDK9; type: cell-based; details: MDA-MB-231 cells, 16 hours, Western blot
# T1 construct: endogenous in cells; host or cells: MDA-MB-231
# Method in brief: (§1)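 MDA-MB-231 cells were treated with compound at final concentrations of 100 nM, 1 μM and 10 μM, or DMSO vehicle, for 16 h. Lysates were resolved by SDS-PAGE and immunoblotted for CDK2, CDK9 and tubulin, with band intensities quantified densitometrically.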
# CDK2 = target: T2, CDK2 (Homo sapiens, UniProt P24941); experiment: CDK protein degradation activity (Western blotting), CDK2; type: cell-based; details: MDA-MB-231 cells, 16 hours, Western blot
# T2 construct: endogenous in cells; host or cells: MDA-MB-231
# Method in brief: as §1
# T1 sequence (P50750 whole entry): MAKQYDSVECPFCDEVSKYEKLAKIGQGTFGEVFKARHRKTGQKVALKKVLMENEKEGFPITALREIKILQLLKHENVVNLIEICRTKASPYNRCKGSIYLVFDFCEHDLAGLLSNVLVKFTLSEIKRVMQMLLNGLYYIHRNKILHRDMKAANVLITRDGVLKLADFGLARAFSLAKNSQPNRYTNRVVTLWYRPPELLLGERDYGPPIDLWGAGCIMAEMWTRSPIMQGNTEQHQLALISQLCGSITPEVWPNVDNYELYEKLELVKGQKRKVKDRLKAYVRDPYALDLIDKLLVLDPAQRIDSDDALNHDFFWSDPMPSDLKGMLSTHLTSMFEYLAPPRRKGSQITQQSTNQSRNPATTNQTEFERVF
Enzyme degradation CDK9 (% remaining) @ 0.1 μM (CDK9),Enzyme degradation CDK9 (% remaining) @ 1 μM (CDK9),Enzyme degradation CDK9 (% remaining) @ 10 μM (CDK9),Enzyme degradation CDK2 (% remaining) @ 0.1 μM (CDK2),Enzyme degradation CDK2 (% remaining) @ 1 μM (CDK2),Enzyme degradation CDK2 (% remaining) @ 10 μM (CDK2),SMILES
10%,70%,40%,100%,100%,60%,"Cc1cccc(C(=O)N[C@H]2C[C@@H](n3cnc4c(NCc5cccc(N6CCN(CC7CCN(c8cccc9c8C(=O)N([C@H]8CCC(=O)NC8=O)C9=O)CC7)CC6)c5)ncnc43)C2)n1 [Compound 136, N-((1s,3s)-3-(6-((3-(4-((1-(2-(2,6-dioxopiperidin-3-yl)-1,3-dioxoisoindolin-4-yl)piperidin-4-yl)methyl)piperazin-1-yl)benzyl)amino)-9H-purin-9-yl)cyclobutyl)-6-methylpicolinamide]"
0/0/0%,0/0/0%,0/0/0%,10%,20%,20%,"O=C1CC[C@@H](c2cccc(OCC(=O)N3CCC4(CC3)CC(N3CCC(c5ccc(Nc6ncnc7c6ncn7C6CC(NC(=O)Cc7ccccc7)C6)cc5)CC3)C4)c2)C(=O)N1 (stereo partly drawn) [Compound 285, N-((1s,3s)-3-(6-((4-(1-(7-(2-(3-(2,6-dioxopiperidin-3-yl)phenoxy)acetyl)-7-azaspiro[3.5]nonan-2-yl)piperidin-4-yl)phenyl)amino)-9H-purin-9-yl)cyclobutyl)-2-phenylacetamide]"
70%,30%,20%,30%,20%,10%,"O=C1CC[C@H](N2C(=O)c3cccc(OCC(=O)N4CCC(CC(=O)N5CCN(c6ccc(Nc7ncnc8c7ncn8C7CC(NC(=O)Cc8ccccc8)C7)cc6)CC5)CC4)c3C2=O)C(=O)N1 (stereo partly drawn) [Compound 212, N-((1s,3s)-3-(6-((4-(4-(2-(1-(2-((2-(2,6-dioxopiperidin-3-yl)-1,3-dioxoisoindolin-4-yl)oxy)acetyl)piperidin-4-yl)acetyl)piperazin-1-yl)phenyl)amino)-9H-purin-9-yl)cyclobutyl)-2-phenylacetamide]"
0/0/0%,0/0/0%,0/0/0%,50/50/50%,50/50/50%,50/50/50%,"O=C1CC[C@H](N2C(=O)c3ccc(OCC(=O)N4CCC(CN5CCN(c6ccc(Nc7ncnc8c7ncn8[C@H]7C[C@@H](NC(=O)c8c(Cl)cccc8Cl)C7)cc6)CC5)CC4)cc3C2=O)C(=O)N1 [Compound 162, 2,6-dichloro-N-((1s,3s)-3-(6-((4-(4-((1-(2-((2-(2,6-dioxopiperidin-3-yl)-1,3-dioxoisoindolin-5-yl)oxy)acetyl)piperidin-4-yl)methyl)piperazin-1-yl)phenyl)amino)-9H-purin-9-yl)cyclobutyl)benzamide]"
0/0/0%,0/0/0%,0/0/0%,0/0/0%,0/0/0%,0/0/0%,"O=C1CC[C@@H](c2cccc(OCC(=O)N3CCC(CCCN4CCN(c5ccc(Nc6ncnc7c6ncn7C6CC(NC(=O)Cc7ccccc7)C6)cc5)CC4)CC3)c2)C(=O)N1 (stereo partly drawn) [Compound 259, N-((1s,3s)-3-(6-((4-(4-(3-(1-(2-(3-(2,6-dioxopiperidin-3-yl)phenoxy)acetyl)piperidin-4-yl)propyl)piperazin-1-yl)phenyl)amino)-9H-purin-9-yl)cyclobutyl)-2-phenylacetamide]"
0/0/0%,0/0/0%,0/0/0%,30%,20%,10%,"N#Cc1cccc(C(=O)NC2CC(n3cnc4c(Nc5ccc(N6CCN(CC7CCN(C(=O)C8CN(c9ccc%10c(c9)C(=O)N([C@H]9CCC(=O)NC9=O)C%10=O)C8)CC7)CC6)cc5)ncnc43)C2)n1 (stereo partly drawn) [Compound 454, 6-cyano-N-((1s,3s)-3-(6-((4-(4-((1-(1-(2-(2,6-dioxopiperidin-3-yl)-1,3-dioxoisoindolin-5-yl)azetidin-3-carbonyl)piperidin-4-yl)methyl)piperazin-1-yl)phenyl)amino)-9H-purin-9-yl)cyclobutyl)picolinamide]"
0/0/0%,0/0/0%,0/0/0%,30%,40%,30%,"O=C1CC[C@H](N2C(=O)c3cccc(N4CCC(CN5CCN(c6ccc(Nc7ncnc8c7ncn8[C@H]7C[C@@H](NC(=O)c8c(Cl)cccc8Cl)C7)cc6)CC5)CC4)c3C2=O)C(=O)N1 [Compound 167, 2,6-dichloro-N-((1s,3s)-3-(6-((4-(4-((1-(2-(2,6-dioxopiperidin-3-yl)-1,3-dioxoisoindolin-4-yl)piperidin-4-yl)methyl)piperazin-1-yl)phenyl)amino)-9H-purin-9-yl)cyclobutyl)benzamide]"
0/0/0%,0/0/0%,0/0/0%,0%,0%,10%,"N#Cc1cccc(C(=O)NC2CC(n3cnc4c(Nc5ccc(N6CCN(CC7CCN(c8ccc9c(c8)C(=O)N([C@H]8CCC(=O)NC8=O)C9=O)CC7)CC6)cc5)ncnc43)C2)n1 (stereo partly drawn) [Compound 392, 6-cyano-N-((1s,3s)-3-(6-((4-(4-((1-(2-(2,6-dioxopiperidin-3-yl)-1,3-dioxoisoindolin-5-yl)piperidin-4-yl)methyl)piperazin-1-yl)phenyl)amino)-9H-purin-9-yl)cyclobutyl)picolinamide]"
10/10/10%,10/10/10%,10/10/10%,40/40/40%,40/40/40%,40/40/40%,"Cc1cccc(C(=O)NC2CC(n3cnc4c(Nc5ccc(N6CCN(C7CC8(CCN(C(=O)COc9ccc([C@@H]%10CCC(=O)NC%10=O)cc9)CC8)C7)CC6)cc5)ncnc43)C2)n1 (stereo partly drawn) [Compound 435, N-((1s,3s)-3-(6-((4-(4-(7-(2-(4-(2,6-dioxopiperidin-3-yl)phenoxy)acetyl)-7-azaspiro[3.5]nonan-2-yl)piperazin-1-yl)phenyl)amino)-9H-purin-9-yl)cyclobutyl)-6-methylpicolinamide]"
0/0/0%,0/0/0%,0/0/0%,60%,50%,50%,"Cc1cccc(C(=O)NC2CC(n3cnc4c(NCc5cccc(N6CCN(CC7CCN(C(=O)CNc8cccc9c8C(=O)N([C@H]8CCC(=O)NC8=O)C9=O)CC7)CC6)c5)ncnc43)C2)n1 (stereo partly drawn) [Compound 134, N-((1s,3s)-3-(6-((3-(4-((1-((2-(2,6-dioxopiperidin-3-yl)-1,3-dioxoisoindolin-4-yl)glycyl)piperidin-4-yl)methyl)piperazin-1-yl)benzyl)amino)-9H-purin-9-yl)cyclobutyl)-6-methylpicolinamide]"
80%,20%,0%,30%,10%,10%,"O=C1CC[C@H](N2C(=O)c3cc(F)c(N4CCN(CCCC5CCN(c6ccc(Nc7ncnc8c7ncn8[C@H]7C[C@@H](NC(=O)Cc8ccccc8)C7)cc6)CC5)CC4)cc3C2=O)C(=O)N1 [Compound 348, N-((1s,3s)-3-(6-((4-(4-(3-(4-(2-(2,6-dioxopiperidin-3-yl)-6-fluoro-1,3-dioxoisoindolin-5-yl)piperazin-1-yl)propyl)piperidin-1-yl)phenyl)amino)-9H-purin-9-yl)cyclobutyl)-2-phenylacetamide]"
20%,0%,0%,50%,40%,40%,"O=C1CC[C@H](N2C(=O)c3cccc(NCC(=O)N4CCC5(CC(N6CCN(c7ccc(Nc8ncnc9c8ncn9C8CC(NC(=O)Cc9ccccc9)C8)cc7)CC6)C5)C4)c3C2=O)C(=O)N1 (stereo partly drawn) [Compound 263, N-((1s,3s)-3-(6-((4-(4-(6-((2-(2,6-dioxopiperidin-3-yl)-1,3-dioxoisoindolin-4-yl)glycyl)-6-azaspiro[3.4]octan-2-yl)piperazin-1-yl)phenyl)amino)-9H-purin-9-yl)cyclobutyl)-2-phenylacetamide]"
30%,0%,0%,40%,60%,70%,"O=C1CC[C@H](N2C(=O)c3ccc(OCC(=O)N4CCC(CN5CCC(c6ccc(Nc7ncnc8c7ncn8C7CC(NC(=O)Cc8ccccc8)C7)cc6)CC5)CC4)cc3C2=O)C(=O)N1 (stereo partly drawn) [Compound 289, N-((1s,3s)-3-(6-((4-(1-((1-(2-((2-(2,6-dioxopiperidin-3-yl)-1,3-dioxoisoindolin-5-yl)oxy)acetyl)piperidin-4-yl)methyl)piperidin-4-yl)phenyl)amino)-9H-purin-9-yl)cyclobutyl)-2-phenylacetamide]"
